This note sets out measurements from patent US8476265B2, “Compounds-801” (AstraZeneca AB, priority 2010, dated 2013).

pIC50: −log10 of the molar value. Counter-ions that a name gives are not always drawn.

For test [1], the target named is T1, human muscarinic acetylcholine M3 receptor (Homo sapiens, UniProt P20309).
T1 construct: expressed in transfected cells; host or cells: CHO-K1 (Chinese Hamster Ovary) cell membranes
The experiment in a line: Muscarinic 3 receptor binding assay ([3H]NMS competition, SPA), pIC50. To be noted: [3H]NMS 0.1 nM, CHO-K1 cell membranes expressing human M3 receptor. The method, then:
Muscarinic 3 Receptor Binding Assay
The affinity (pIC50) of compounds binding to the M3 receptor is determined by competition binding of [^3H]N-methyl scopolamine (NMS) to CHO-K1 (Chinese Hamster Ovary) cell membranes expressing the human muscarinic acetylcholine M3 receptor (M3-ACh) in a scintillation proximity assay (SPA) format.
SPA beads are precoated with membranes and then incubated at 2 mg of beads per well with serial dilutions of compounds of the invention, [^3H]NMS at 0.1 nM, quarter Kd (experimentally determined dissociation constant) and assay buffer (20 mM HEPES pH 7.4 containing 5 mM MgCl2 and 0.1% (w/v) bovine serum albumin). The assay is conducted in a final volume of 200 μL, in the presence of 1% (v/v) dimethyl sulphoxide (DMSO). Total binding of [^3H]NMS is determined in the absence of competing compound and non-specific binding of [^3H]NMS is determined in the presence of 1 μM atropine. The plates are incubated for 16 hours at room temperature and then read on Wallac Microbeta™ using a normalised ^3H protocol. The pIC50, defined as the negative logarithm of the molar concentration of compound required for 50% reduction in specific [^3H]-NMS binding, is determined.

The target of the next test is T2, Adrenergic β2 (Homo sapiens, UniProt P07550).
T2 construct: Adherent H292 cells are removed from tissue culture flasks by treatment with Accutase™ cell detachment solution; endogenous in cells; host or cells: H292 cells
The experiment in a line: Adrenergic β2 mediated cAMP production in H292 cells (AlphaScreen), concentration response. Format: cell-based. Particulars: for EC50: 60 min, 300 μM rolipram, read-out: β2 pEC50 (converted); for β2 Intrinsic Activity: fraction relative to the maximum activity determined for formoterol. The protocol: Assay for Adrenergic 132 Mediated cAMP Production
H292 cells are grown in 225 cm2 flasks incubator at 37° C., 5% CO2 in RPMI medium containing 10% (v/v) FBS (foetal bovine serum) and 2 mM L-glutamine.
Adherent H292 cells re removed from tissue culture flasks by treatment with Accutase™ cell detachment solution for 15 minutes. Flasks are incubated for 15 minutes in a humidified incubator at 37° C., 5% CO2. Detached cells are re-suspended in RPMI media (containing 10% (v/v) FBS and 2 mM L-glutamine) at 0.1×10^6 cells per mL. 10000 cells in 100 μl, are added to each well of a tissue-culture-treated 96-well plate and the cells incubated overnight in a humidified incubator at 37° C., 5% CO2. The culture media is removed and cells are washed twice with 100 μL assay buffer and replaced with 50 μl assay buffer (HBSS solution containing 10 mM HEPES pH7.4 and 5 mM glucose). Cells are rested at room temperature for 20 minutes after which time 25 μl of rolipram (1.2 mM made up in assay buffer containing 2.4% (v/v) dimethylsulphoxide) is added. Cells are incubated with rolipram for 10 minutes after which time test compounds are added and the cells are incubated for 60 minutes at room temperature. The final rolipram concentration in the assay is 300 μM and final vehicle concentration is 1% (v/v) dimethylsulphoxide. The reaction is stopped by removing supernatants, washing once with 100 μL assay buffer and replacing with 50 μL lysis buffer. The cell monolayer is frozen at −80° C. for 30 minutes (or overnight).
AlphaScreen™ cAMP detection
The concentration of cAMP (cyclic adenosine monophosphate) in the cell lysate is determined using AlphaScreen™ methodology. The frozen cell plate is thawed for 20 minutes on a plate shaker then 10 μL of the cell lysate is transferred to a 96-well white plate. 40 μL of mixed AlphaScreen™ detection beads pre-incubated with biotinylated cAMP, is added to each well and the plate incubated at room temperature for 3 hours in the dark. The AlphaScreen™ signal is measured using an EnVision spectrophotometer (Perkin-Elmer Inc.) with the recommended manufacturer's settings. cAMP concentrations are determined by reference to a calibration curve determined in the same experiment using standard cAMP concentrations. Concentration response curves for agonists are constructed and data is fitted to a four parameter logistic equation to determine both the pEC50 and Intrinsic Activity. Intrinsic Activity is expressed as a fraction relative to the maximum activity determined for formoterol in each experiment.
In general terms: cAMP levels reflect the balance of adenylyl cyclase and phosphodiesterase activity.

T1 sequence (P20309 whole entry): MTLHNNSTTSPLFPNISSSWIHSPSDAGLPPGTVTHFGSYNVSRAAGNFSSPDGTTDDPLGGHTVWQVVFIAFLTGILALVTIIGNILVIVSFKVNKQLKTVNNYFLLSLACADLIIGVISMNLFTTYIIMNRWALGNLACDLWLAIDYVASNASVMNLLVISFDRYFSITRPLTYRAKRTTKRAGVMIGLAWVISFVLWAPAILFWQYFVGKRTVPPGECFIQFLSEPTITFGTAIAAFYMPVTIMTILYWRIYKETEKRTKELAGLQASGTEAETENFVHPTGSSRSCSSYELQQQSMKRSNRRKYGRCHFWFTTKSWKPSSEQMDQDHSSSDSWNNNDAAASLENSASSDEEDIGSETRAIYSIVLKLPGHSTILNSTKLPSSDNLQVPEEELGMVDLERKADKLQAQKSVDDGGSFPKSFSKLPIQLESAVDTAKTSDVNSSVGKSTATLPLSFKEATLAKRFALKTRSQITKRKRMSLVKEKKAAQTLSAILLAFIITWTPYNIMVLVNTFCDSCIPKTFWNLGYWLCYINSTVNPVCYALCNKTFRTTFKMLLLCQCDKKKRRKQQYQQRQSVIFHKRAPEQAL
T2 sequence (P07550 whole entry): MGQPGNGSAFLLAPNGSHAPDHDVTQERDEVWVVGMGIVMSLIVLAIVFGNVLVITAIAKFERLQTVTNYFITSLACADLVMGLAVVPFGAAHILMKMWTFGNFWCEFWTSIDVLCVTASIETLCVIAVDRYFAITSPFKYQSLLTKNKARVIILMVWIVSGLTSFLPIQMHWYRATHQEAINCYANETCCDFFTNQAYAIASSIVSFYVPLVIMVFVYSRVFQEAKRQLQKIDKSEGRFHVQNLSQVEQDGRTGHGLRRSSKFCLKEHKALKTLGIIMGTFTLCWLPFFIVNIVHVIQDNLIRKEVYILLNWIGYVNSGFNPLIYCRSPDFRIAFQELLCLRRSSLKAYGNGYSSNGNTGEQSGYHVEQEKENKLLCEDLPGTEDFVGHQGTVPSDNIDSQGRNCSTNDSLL

For the molecule `CCCC[C@@H](C)N(CCNCCc1ccc(O)c2c1OCC(=O)N2)C(=O)CCOCCc1cccc(CN2CCC3(CC2)CN(C(=O)c2csc(C(C)C)n2)CCO3)c1F` [Example 18, (R)-3-(2-Fluoro-3-((4-(2-isopropylthiazole-4-carbonyl)-1-oxa-4,9-diazaspiro[5.5]undecan-9-yl)methyl)phenethoxy)-N-(hexan-2-yl)-N-(2-(2-(5-hydroxy-3-oxo-3,4-dihydro-2H-benzo[b][1,4]oxazin-8-yl)ethylamino)ethyl)propanamide ditrifluoroacetate], the pIC50 (in general, the negative decadic logarithm of the IC50, by convention in mol/L) in test [1] is 9.40. Further, at Adrenergic β2, the EC50 is 20 nM and the “β2 Intrinsic Activity” value came to 1.0.
The molecule `Cc1nc(C(=O)N2CCOC3(CCN(Cc4ccc(CCOCCC(=O)N(CCNCCc5ccc(O)c6c5OCC(=O)N6)C5CCCCC5)cc4)CC3)C2)cs1` [Example 45, N-Cyclohexyl-N-(2-(2-(5-hydroxy-3-oxo-3,4-dihydro-2H-benzo[b][1,4]oxazin-8-yl)ethylamino)ethyl)-3-(4-((4-(2-methylthiazole-4-carbonyl)-1-oxa-4,9-diazaspiro[5.5]undecan-9-yl)methyl)phenethoxy)propanamide ditrifluoroacetate] gave a negative-log IC50 (pIC50) in test [1] of 8.20. On Adrenergic β2, the EC50 is 39.8 nM and the “β2 Intrinsic Activity” value was 0.9.
`CCN(CCNCCc1ccc(O)c2[nH]c(=O)sc12)C(=O)CCOCCc1cc(Cl)cc(CN2CCC3(CC2)CN(C(=O)c2csc(C(C)C)n2)CCO3)c1` [Example 50, 3-(3-Chloro-5-((4-(2-isopropylthiazole-4-carbonyl)-1-oxa-4,9-diazaspiro[5.5]undecan-9-yl)methyl)phenethoxy)-N-ethyl-N-(2-(2-(4-hydroxy-2-oxo-2,3-dihydrobenzo[d]thiazol-7-yl)ethylamino)ethyl)propanamide ditrifluoroacetate] showed a pIC50 in test [1] of 6.10. Also, at Adrenergic β2, the EC50 is 126 nM and the “β2 Intrinsic Activity” value is reported as 0.9.
As to `CC[C@@H](C)N(CCNCCc1ccc(O)c2c1OCC(=O)N2)C(=O)CCOCCc1cccc(CCN2CCC3(CC2)CN(C(=O)c2csc(C(C)C)n2)CCO3)c1` [Example 37, (R)—N-sec-Butyl-N-(2-(2-(5-hydroxy-3-oxo-3,4-dihydro-2H-benzo[b][1,4]oxazin-8-yl)ethylamino)ethyl)-3-(3-(2-(4-(2-isopropylthiazole-4-carbonyl)-1-oxa-4,9-diazaspiro[5.5]undecan-9-yl)ethyl)phenethoxy)propanamide ditrifluoroacetate], in test [1], the pIC50 was 9.10. Also, on Adrenergic β2, the EC50 is 10 nM and the “β2 Intrinsic Activity” value is recorded as 0.9.
In turn, `CC(C)c1nc(C(=O)N2CCOC3(CCN(CCc4cccc(CCOCCC(=O)N(CCNCCc5ccc(O)c6c5OCC(=O)N6)C5CCCC5)c4)CC3)C2)cs1` [Example 39, N-Cyclopentyl-N-(2-(2-(5-hydroxy-3-oxo-3,4-dihydro-2H-benzo[b][1,4]oxazin-8-yl)ethylamino)ethyl)-3-(3-(2-(4-(2-isopropylthiazole-4-carbonyl)-1-oxa-4,9-diazaspiro[5.5]undecan-9-yl)ethyl)phenethoxy)propanamide ditrifluoroacetate] showed a pIC50 in test [1] of 9.00. Moreover, on Adrenergic β2, the EC50 is 10 nM and the “β2 Intrinsic Activity” value was determined as 1.0.
In turn, `CCc1nc(C(=O)N2CCOC3(CCN(Cc4cccc(CCOCCC(=O)N(CC)CCNCCc5ccc(O)c6[nH]c(=O)sc56)c4Cl)CC3)C2)cs1` [Example 26, 3-(2-Chloro-3-((4-(2-ethylthiazole-4-carbonyl)-1-oxa-4,9-diazaspiro[5.5]undecan-9-yl)methyl)phenethoxy)-N-ethyl-N-(2-(2-(4-hydroxy-2-oxo-2,3-dihydrobenzo[d]thiazol-7-yl)ethylamino)ethyl)propanamide ditrifluoroacetate] gave a pIC50 in test [1] of 9.20. Further, at Adrenergic β2, the EC50 was 7.94 nM and the “β2 Intrinsic Activity” value is 0.8.
`CCc1ccc(C(=O)N2CCOC3(CCN(Cc4cccc(CCOCCC(=O)N(CCNCCc5ccc(O)c6c5OCC(=O)N6)C5CCCCC5)c4)CC3)C2)s1` [Example 83, N-Cyclohexyl-3-(3-((4-(5-ethylthiophene-2-carbonyl)-1-oxa-4,9-diazaspiro[5.5]undecan-9-yl)methyl)phenethoxy)-N-(2-(2-(5-hydroxy-3-oxo-3,4-dihydro-2H-benzo[b][1,4]oxazin-8-yl)ethylamino)ethyl)propanamide]: the negative-log IC50 (pIC50) in test [1] was 9.50. At Adrenergic β2, the EC50 is 251 nM and the “β2 Intrinsic Activity” value was found to be 1.1.
With `CC(C)c1nc(C(=O)N2CCOC3(CCN(Cc4csc(CCOCCC(=O)N(CCNCCc5ccc(O)c6c5OCC(=O)N6)C5CCCCC5)c4)CC3)C2)cs1` [Example 56, N-Cyclohexyl-N-(2-(2-(5-hydroxy-3-oxo-3,4-dihydro-2H-benzo[b][1,4]oxazin-8-yl)ethylamino)ethyl)-3-(2-(4-((4-(2-isopropylthiazole-4-carbonyl)-1-oxa-4,9-diazaspiro[5.5]undecan-9-yl)methyl)thiophen-2-yl)ethoxy)propanamide ditrifluoroacetate], in test [1], the pIC50 is 10.20. Besides, on Adrenergic β2, the EC50 was 200 nM and the “β2 Intrinsic Activity” value is 1.2.
As for `Cc1nc(C(=O)N2CCOC3(CCN(CCc4ccc(CCOCCC(=O)N(CCNCCc5ccc(O)c6c5OCC(=O)N6)C5CCCCCC5)cc4)CC3)C2)cs1` [Example 5, N-Cycloheptyl-N-(2-(2-(5-hydroxy-3-oxo-3,4-dihydro-2H-benzo[b][1,4]oxazin-8-yl)ethylamino)ethyl)-3-(4-(2-(4-(2-methylthiazole-4-carbonyl)-1-oxa-4,9-diazaspiro[5.5]undecan-9-yl)ethyl)phenethoxy)propanamide ditrifluoroacetate], the pIC50 in test [1] is 9.70. Moreover, on Adrenergic β2, the EC50 was 20 nM and the “β2 Intrinsic Activity” value is recorded as 0.9.
As for `Cc1c(CCOCCC(=O)N(CCNCCc2ccc(O)c3c2OCC(=O)N3)C2CCCC2)cccc1CN1CCC2(CC1)CN(C(=O)c1csc(C(C)C)n1)CCO2` [Example 64, N-Cyclopentyl-N-(2-(2-(5-hydroxy-3-oxo-3,4-dihydro-2H-benzo[b][1,4]oxazin-8-yl)ethylamino)ethyl)-3-(3-((4-(2-isopropylthiazole-4-carbonyl)-1-oxa-4,9-diazaspiro[5.5]undecan-9-yl)methyl)-2-methylphenethoxy)propanamide ditrifluoroacetate], the pIC50 in test [1] is 8.60. For the same molecule, at Adrenergic β2, the EC50 was 20 nM and the “β2 Intrinsic Activity” value is given as 1.0.
Consider `CC(C)Cc1nc(C(=O)N2CCOC3(CCN(Cc4cccc(CCOCCC(=O)N(CCNCCc5ccc(O)c6c5OCC(=O)N6)C5CCCCC5)c4)CC3)C2)cs1` [Example 94, N-Cyclohexyl-N-(2-(2-(5-hydroxy-3-oxo-3,4-dihydro-2H-benzo[b][1,4]oxazin-8-yl)ethylamino)ethyl)-3-(3-((4-(2-isobutylthiazole-4-carbonyl)-1-oxa-4,9-diazaspiro[5.5]undecan-9-yl)methyl)phenethoxy)propanamide], for which the negative-log IC50 (pIC50) in test [1] was 9.60. Also, on Adrenergic β2, the EC50 is 126 nM and the “β2 Intrinsic Activity” value turned out to be 1.0.
As to `CCc1nc(C(=O)N2CCOC3(CCN(Cc4cccc(CCOCCC(=O)N(CCNCCc5ccc(O)c6c5OCC(=O)N6)C5CCCC5)c4Cl)CC3)C2)cs1` [Example 33a, 3-(2-chloro-3-((4-(2-ethylthiazole-4-carbonyl)-1-oxa-4,9-diazaspiro[5.5]undecan-9-yl)methyl)phenethoxy)-N-cyclopentyl-N-(2-(2-(5-hydroxy-3-oxo-3,4-dihydro-2H-benzo[b][1,4]oxazin-8-yl)ethylamino)ethyl)propanamide, sulphate salt], the pIC50 in test [1] is 9.30.
